Results published in PubChem BioAssay AID256 (DTP/NCI, 2004).
Values joined by “and” are separate entries in the source; they are usually repeats but may differ in a detail not shown here. Identical values can stand only once. Inconclusive results and toxic doses are left out.

Test system: CD2F1 mice, L1210 leukemia ip, survival T/C
Experiment: NCI In Vivo Anticancer Drug Screen. Data for tumor model L1210 Leukemia (intraperitoneal) in CD2F1 (CDF1) mice
Conditions: higher = longer survival
Procedure, shortened: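 Mice carrying a transplanted tumor received test compound or vehicle alone. The value is the measurement in the treated group divided by that in the vehicle-treated control group.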

[1] = endpoint: mean survival time, dose: 50.0 mg/kg/injection, schedule: Q01DX009 (ip), vehicle: saline with Tween-80
[2] = endpoint: mean survival time, dose: 100.0 mg/kg/injection, schedule: Q01DX001 (ip), vehicle: saline with Tween-80
[3] = endpoint: mean survival time, dose: 100.0 mg/kg/injection, schedule: Q01DX009 (ip), vehicle: saline with Tween-80
[4] = endpoint: mean survival time, dose: 100.0 mg/kg/injection, schedule: Q04DX002 (ip), vehicle: saline with Tween-80
[5] = endpoint: mean survival time, dose: 100.0 mg/kg/injection, schedule: Q04DX003 (ip), vehicle: saline with Tween-80
[6] = endpoint: mean survival time, dose: 200.0 mg/kg/injection, schedule: Q01DX001 (ip), vehicle: saline with Tween-80
[7] = endpoint: mean survival time, dose: 200.0 mg/kg/injection, schedule: Q01DX009 (ip), vehicle: saline with Tween-80
[8] = endpoint: mean survival time, dose: 200.0 mg/kg/injection, schedule: Q04DX002 (ip), vehicle: saline with Tween-80
[9] = endpoint: mean survival time, dose: 200.0 mg/kg/injection, schedule: Q04DX003 (ip), vehicle: saline with Tween-80
[10] = endpoint: mean survival time, dose: 400.0 mg/kg/injection, schedule: Q01DX001 (ip), vehicle: saline with Tween-80
[11] = endpoint: mean survival time, dose: 400.0 mg/kg/injection, schedule: Q01DX009 (ip), vehicle: saline with Tween-80
[12] = endpoint: mean survival time, dose: 400.0 mg/kg/injection, schedule: Q04DX002 (ip), vehicle: saline with Tween-80
[13] = endpoint: mean survival time, dose: 400.0 mg/kg/injection, schedule: Q04DX003 (ip), vehicle: saline with Tween-80
[14] = endpoint: mean survival time, dose: 6.25 mg/kg/injection, schedule: Q01DX001 (ip), vehicle: saline with Tween-80
[15] = endpoint: mean survival time, dose: 12.5 mg/kg/injection, schedule: Q01DX001 (ip), vehicle: saline with Tween-80
[16] = endpoint: mean survival time, dose: 100.0 mg/kg/injection, schedule: Q04DX003 (ip), vehicle: saline
[17] = endpoint: mean survival time, dose: 200.0 mg/kg/injection, schedule: Q04DX003 (ip), vehicle: saline
[18] = endpoint: mean survival time, dose: 400.0 mg/kg/injection, schedule: Q04DX003 (ip), vehicle: saline

O=C(/C=C/c1ccccc1)NC(=S)Nc1cc(Cl)ccc1Cl
T/C [1]: 95 % of control | T/C [2]: 90 % of control | T/C [3]: 112 % of control and 98 % of control and 100 % of control | T/C [4]: 95 % of control and 102 % of control | T/C [5]: 104 % of control | T/C [6]: 100 % of control | T/C [7]: 97 % of control and 98 % of control and 105 % of control | T/C [8]: 95 % of control and 110 % of control | T/C [9]: 104 % of control | T/C [10]: 105 % of control | T/C [11]: 115 % of control and 98 % of control and 100 % of control | T/C [12]: 105 % of control and 111 % of control | T/C [13]: 106 % of control

CC(=O)OCC1OC([Se][As](C)C)C(OC(C)=O)C(OC(C)=O)C1OC(C)=O (stereo not drawn)
T/C (endpoint: mean survival time, dose: 3.13 mg/kg/injection, schedule: Q01DX009 (ip), vehicle: saline with Tween-80): 98 % of control | T/C [14]: 95 % of control | T/C (endpoint: mean survival time, dose: 6.25 mg/kg/injection, schedule: Q01DX009 (ip), vehicle: saline with Tween-80): 96 % of control | T/C [15]: 97 % of control | T/C (endpoint: mean survival time, dose: 12.5 mg/kg/injection, schedule: Q01DX009 (ip), vehicle: saline with Tween-80): 96 % of control

CN1CCC23CC=CCC2C1Cc1ccc([N+](=O)[O-])cc13 (stereo not drawn)
T/C [14]: 103 % of control | T/C [15]: 105 % of control | T/C (endpoint: mean survival time, dose: 25.0 mg/kg/injection, schedule: Q01DX001 (ip), vehicle: saline with Tween-80): 105 % of control

CCOCc1cc(C)[nH]c(=O)c1C#N
T/C [5]: 96 % of control | T/C [9]: 98 % of control

CCSCCNC1=C(C)C(=O)C2=C(C1=O)[C@H](COC(N)=O)[C@]1(OC)[C@@H]3N[C@@H]3CN21
T/C (endpoint: mean survival time, dose: 6.0 mg/kg/injection, schedule: Q01DX001 (ip), vehicle: distilled water + Tween-80): 121 % of control | T/C (endpoint: mean survival time, dose: 24.0 mg/kg/injection, schedule: Q01DX001 (ip), vehicle: distilled water + Tween-80): 155 % of control

CCC1C(=O)OCc2c1cc1n(c2=O)C(CC)c2c-1nc1ccccc1c2Cl (stereo not drawn)
T/C [16]: 98 % of control | T/C [17]: 95 % of control | T/C [18]: 90 % of control

COc1ccc(-n2cc(C#N)c3c(C)cc(C)nc32)cc1
T/C (endpoint: mean survival time, dose: 100.0 mg/kg/injection, schedule: Q01DX001 (ip), vehicle: saline): 100 % of control | T/C (endpoint: mean survival time, dose: 200.0 mg/kg/injection, schedule: Q01DX001 (ip), vehicle: saline): 96 % of control | T/C (endpoint: mean survival time, dose: 400.0 mg/kg/injection, schedule: Q01DX001 (ip), vehicle: saline): 87 % of control

COC(=O)C1C2CC3c4[nH]c5cc(OC)c(Br)cc5c4CCN3CC2CC(OC(=O)c2cc(OC)c(OC)c(OC)c2)C1OC (stereo not drawn)
T/C (endpoint: mean survival time, dose: 75.0 mg/kg/injection, schedule: Q01DX001 (ip), vehicle: saline): 92 % of control | T/C (endpoint: mean survival time, dose: 150.0 mg/kg/injection, schedule: Q01DX001 (ip), vehicle: saline): 103 % of control | T/C (endpoint: mean survival time, dose: 300.0 mg/kg/injection, schedule: Q01DX001 (ip), vehicle: saline): 105 % of control

O=[N+]([O-])c1c[nH]n2c([N+](=O)[O-])cnc12
T/C (endpoint: mean survival time, dose: 12.5 mg/kg/injection, schedule: Q01DX009 (ip), vehicle: water): 96 % of control | T/C (endpoint: mean survival time, dose: 25.0 mg/kg/injection, schedule: Q01DX009 (ip), vehicle: water): 97 % of control

Nc1[nH]c(=S)[nH]c(=O)c1N
T/C (endpoint: mean survival time, dose: 6.25 mg/kg/injection, schedule: Q04DX002 (ip), vehicle: saline with Tween-80): 102 % of control | T/C (endpoint: mean survival time, dose: 12.5 mg/kg/injection, schedule: Q04DX002 (ip), vehicle: saline with Tween-80): 102 % of control | T/C (endpoint: mean survival time, dose: 25.0 mg/kg/injection, schedule: Q04DX002 (ip), vehicle: saline with Tween-80): 102 % of control

Cc1ccc(NC(=S)N2CCCC2)cc1
T/C [3]: 97 % of control | T/C [7]: 91 % of control | T/C [11]: 95 % of control

CC(=O)OC1CCC2(C)C(=CC=C3C2=CCC2(C)C3CCC2C(C)/C=C\C(C)C(C)C)C1 (stereo not drawn)
T/C (endpoint: mean survival time, dose: 50.0 mg/kg/injection, schedule: Q01DX009 (ip), vehicle: Klucel (hydroxypropylcellulose) (HPC)): 96 % of control | T/C (endpoint: mean survival time, dose: 100.0 mg/kg/injection, schedule: Q01DX009 (ip), vehicle: Klucel (hydroxypropylcellulose) (HPC)): 93 % of control | T/C (endpoint: mean survival time, dose: 200.0 mg/kg/injection, schedule: Q01DX009 (ip), vehicle: Klucel (hydroxypropylcellulose) (HPC)): 101 % of control

Cn1c2ccccc2c2ccc3c(c21)C(=O)C=CC3=O
T/C (endpoint: median survival time, dose: 12.5 mg/kg/injection, schedule: Q01DX009 (ip), vehicle: Klucel (hydroxypropylcellulose) (HPC)): 100 % of control | T/C (endpoint: median survival time, dose: 25.0 mg/kg/injection, schedule: Q01DX009 (ip), vehicle: Klucel (hydroxypropylcellulose) (HPC)): 102 % of control | T/C (endpoint: median survival time, dose: 50.0 mg/kg/injection, schedule: Q01DX009 (ip), vehicle: Klucel (hydroxypropylcellulose) (HPC)): 109 % of control

C1CCC(C2CCCC[N-]2)[N-]C1.O=C(O)C1CCC[N-]1.[Cl][Pt] (stereo not drawn)
T/C (endpoint: median survival time, dose: 10.0 mg/kg/injection, schedule: Q04DX003 (ip), vehicle: saline): 103 % of control | T/C (endpoint: median survival time, dose: 20.0 mg/kg/injection, schedule: Q04DX003 (ip), vehicle: saline): 101 % of control | T/C (endpoint: median survival time, dose: 40.0 mg/kg/injection, schedule: Q04DX003 (ip), vehicle: saline): 98 % of control | T/C (endpoint: median survival time, dose: 80.0 mg/kg/injection, schedule: Q04DX003 (ip), vehicle: saline): 98 % of control and 104 % of control | T/C (endpoint: median survival time, dose: 160.0 mg/kg/injection, schedule: Q04DX003 (ip), vehicle: saline): 104 % of control

CC(C)(O)C#CC(C)(C)O
T/C [16]: 101 % of control | T/C [17]: 101 % of control | T/C [18]: 97 % of control

[C-]#[O+].[Cl][Sn]([Cl])[Cl].[Cl][Sn]([Cl])[Cl].[Pt].c1ccncc1
T/C (endpoint: median survival time, dose: 3.12 mg/kg/injection, schedule: Q04DX003 (ip), vehicle: saline with Tween-80): 113 % of control | T/C (endpoint: median survival time, dose: 6.25 mg/kg/injection, schedule: Q04DX003 (ip), vehicle: saline with Tween-80): 110 % of control | T/C (endpoint: median survival time, dose: 12.5 mg/kg/injection, schedule: Q04DX003 (ip), vehicle: saline with Tween-80): 110 % of control | T/C (endpoint: median survival time, dose: 25.0 mg/kg/injection, schedule: Q04DX003 (ip), vehicle: saline with Tween-80): 102 % of control | T/C (endpoint: median survival time, dose: 50.0 mg/kg/injection, schedule: Q04DX003 (ip), vehicle: saline with Tween-80): 108 % of control | T/C (endpoint: median survival time, dose: 100.0 mg/kg/injection, schedule: Q04DX003 (ip), vehicle: saline with Tween-80): 108 % of control | T/C (endpoint: median survival time, dose: 200.0 mg/kg/injection, schedule: Q04DX003 (ip), vehicle: saline with Tween-80): 120 % of control

O=C(O)/C(=C(/c1ccccc1)c1ccc(Cl)cc1)c1ccccc1
T/C [5]: 98 % of control | T/C [9]: 96 % of control | T/C [13]: 98 % of control

CC(=O)/C=C(\C)OC1CCCCC1
T/C (endpoint: mean survival time, dose: 100.0 mg/kg/injection, schedule: Q01DX009 (ip), vehicle: saline): 98 % of control | T/C (endpoint: mean survival time, dose: 200.0 mg/kg/injection, schedule: Q01DX009 (ip), vehicle: saline): 93 % of control

O=c1nc(NCCc2c[nH]c3ccccc23)ccn1C1OC(CO)C(O)C1O (stereo not drawn)
T/C (endpoint: median survival time, dose: 12.5 mg/kg/injection, schedule: Q01DX005 (ip), vehicle: distilled water + Tween-80): 101 % of control | T/C (endpoint: median survival time, dose: 25.0 mg/kg/injection, schedule: Q01DX005 (ip), vehicle: distilled water + Tween-80): 100 % of control | T/C (endpoint: median survival time, dose: 50.0 mg/kg/injection, schedule: Q01DX005 (ip), vehicle: distilled water + Tween-80): 98 % of control | T/C (endpoint: median survival time, dose: 100.0 mg/kg/injection, schedule: Q01DX005 (ip), vehicle: distilled water + Tween-80): 98 % of control | T/C (endpoint: median survival time, dose: 200.0 mg/kg/injection, schedule: Q01DX005 (ip), vehicle: distilled water + Tween-80): 98 % of control

CC(=O)OC1OC(=O)C(C)(C(C)=O)C1C (stereo not drawn)
T/C (endpoint: median survival time, dose: 2.5 mg/kg/injection, schedule: Q01DX009 (ip), vehicle: distilled water + alcohol): 103 % of control | T/C (endpoint: median survival time, dose: 5.0 mg/kg/injection, schedule: Q01DX009 (ip), vehicle: distilled water + alcohol): 101 % of control | T/C (endpoint: median survival time, dose: 10.0 mg/kg/injection, schedule: Q01DX009 (ip), vehicle: distilled water + alcohol): 104 % of control | T/C (endpoint: median survival time, dose: 20.0 mg/kg/injection, schedule: Q01DX009 (ip), vehicle: distilled water + alcohol): 103 % of control

CCCCCCCCCC(=O)NC(=S)Nc1ccc(Cl)cc1
T/C (endpoint: mean survival time, dose: 25.0 mg/kg/injection, schedule: Q01DX009 (ip), vehicle: saline with Tween-80): 95 % of control and 96 % of control | T/C [1]: 98 % of control and 101 % of control | T/C [2]: 94 % of control and 95 % of control | T/C [4]: 100 % of control and 104 % of control | T/C [6]: 92 % of control and 103 % of control | T/C [8]: 92 % of control and 93 % of control | T/C [10]: 100 % of control and 103 % of control | T/C [12]: 88 % of control and 90 % of control

ClCC1(CCl)COC(c2ccccc2)OC1
T/C [3]: 95 % of control | T/C [7]: 95 % of control | T/C [11]: 94 % of control
